Source: patent publication US12410208B2, “(2-acetamidyl)thio-beta-D-galactopyranoside derivatives” (Idorsia Pharmaceuticals Ltd, priority 2020, dated 2025)
Like-named read-outs stand apart in the source and are kept apart here.

Assays:
[1] = molecular target: human Gal-1 (hGal-1) (Homo sapiens, UniProt P09382); test: Competitive binding assay: biotinylated hGal-1 binding to microplate-adsorbed asialofetuin (ASF), spectrophotometric; conditions: hGal-1 binding to asialofetuin; Table 15; R and S epimers of selected Examples also listed; read-out: IC50 (Galectin-1 inhibition)
Procedure, shortened: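 Spectrophotometric competition readout with ABTS after streptavidin-peroxidase (80 ng/mL, 1 h, 4 °C) detection of bound biotinylated hGal-1.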

[2] = molecular target: biotinylated human Gal-3 (hGal-3) (Homo sapiens, UniProt P17931); test: Competitive binding assay: biotinylated hGal-3 binding to microplate-adsorbed asialofetuin (ASF), spectrophotometric
Procedure, shortened: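 Serially diluted compounds competed with asialofetuin on the plate for biotinylated human Gal-3 during a 3 h incubation at 4° C. Streptavidin-peroxidase with ABTS gave the spectrophotometric signal. IC50 values were averaged over repeat runs.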

[3] = Table 12, hGal-3, read-out: IC50 (Gal-3 inhibition)
[4] = Gal-3 inhibition, Table 5, read-out: IC50

Chain of biotinylated human Gal-3 (hGal-3) (P17931 whole entry): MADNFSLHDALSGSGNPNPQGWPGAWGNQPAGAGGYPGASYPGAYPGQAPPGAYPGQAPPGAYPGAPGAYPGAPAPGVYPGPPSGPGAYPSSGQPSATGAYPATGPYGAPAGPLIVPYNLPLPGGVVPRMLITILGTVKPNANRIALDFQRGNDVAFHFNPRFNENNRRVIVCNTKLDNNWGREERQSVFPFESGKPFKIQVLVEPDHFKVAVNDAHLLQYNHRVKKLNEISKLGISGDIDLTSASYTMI
Chain of human Gal-1 (hGal-1) (P09382 whole entry): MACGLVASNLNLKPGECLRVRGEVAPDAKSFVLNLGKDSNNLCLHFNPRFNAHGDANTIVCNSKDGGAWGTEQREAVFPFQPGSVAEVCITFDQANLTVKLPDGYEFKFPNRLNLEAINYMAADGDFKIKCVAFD

CO[C@@H]1[C@@H](n2cc(-c3cc(F)c(F)c(F)c3)nn2)[C@@H](O)[C@@H](CO)O[C@H]1SC(C(=O)N(C)C1CCOCC1)C1(O)CCC(F)(F)CC1 (stereo partly drawn) [Example 2.44.213.I., 2-(4,4-Difluoro-1-hydroxycyclohexyl)-2-(((2S,3R,4S,5R,6R)-5-hydroxy-6-(hydroxymethyl)-3-methoxy-4-(4-(3,4,5-trifluorophenyl)-1H-1,2,3-triazol-1-yl)tetrahydro-2H-pyran-2-yl)thio)-N-methyl-N-(tetrahydro-2H-pyran-4-yl)acetamide]
IC50 [1]: 150 nM
IC50 [2, 3]: 70 nM

CCN(CC1CCOCC1)C(=O)C(S[C@@H]1O[C@H](CO)[C@H](O)[C@H](n2cc(-c3cc(F)c(F)c(F)c3)nn2)[C@H]1OC)C1(O)CCC(F)(F)CC1 (some centres unmarked) [Example 2.44.214.I.]
IC50 [1]: 20 nM
IC50 ([2]; Table 10, hGal-3, read-out: IC50 (Gal-3 inhibition)): 30 nM

CO[C@@H]1[C@@H](n2cc(-c3cc(F)c(F)c(F)c3)nn2)[C@@H](O)[C@@H](CO)O[C@H]1SC(C(=O)N(C)CCC1CC1)C1(O)CCC(F)(F)CC1 (stereo partly drawn) [Example 2.44.217.I., N-(2-Cyclopropylethyl)-2-(4,4-difluoro-1-hydroxycyclohexyl)-2-(((2S,3R,4S,5R,6R)-5-hydroxy-6-(hydroxymethyl)-3-methoxy-4-(4-(3,4,5-trifluorophenyl)-1H-1,2,3-triazol-1-yl)tetrahydro-2H-pyran-2-yl)thio)-N-methylacetamide]
IC50 [1]: 110 nM
IC50 [2, 3]: 50 nM

CN(CC1CC1)C(=O)C(S[C@@H]1O[C@H](CO)[C@H](O)[C@H](n2cc(-c3cc(F)c(F)c(F)c3)nn2)[C@H]1O)C1(O)CCC(F)(F)CC1 (stereo partly drawn) [Example 2.44.218., N-(Cyclopropylmethyl)-2-(4,4-difluoro-1-hydroxycyclohexyl)-2-(((2S,3R,4S,5R,6R)-3,5-dihydroxy-6-(hydroxymethyl)-4-(4-(3,4,5-trifluorophenyl)-1H-1,2,3-triazol-1-yl)tetrahydro-2H-pyran-2-yl)thio)-N-methylacetamide]
IC50 [1]: 30 nM
IC50 [2, 4]: 20 nM

CO[C@@H]1[C@@H](n2cc(-c3cc(F)c(F)c(F)c3)nn2)[C@@H](O)[C@@H](CO)O[C@H]1SC(C(=O)N(C)CC1CC1)C1(O)CCC(F)(F)CC1 (stereo partly drawn) [Example 2.44.218.I., N-(Cyclopropylmethyl)-2-(4,4-difluoro-1-hydroxycyclohexyl)-2-(((2S,3R,4S,5R,6R)-5-hydroxy-6-(hydroxymethyl)-3-methoxy-4-(4-(3,4,5-trifluorophenyl)-1H-1,2,3-triazol-1-yl)tetrahydro-2H-pyran-2-yl)thio)-N-methylacetamide]
IC50 [1]: 80 nM
IC50 [2, 3]: 30 nM

CN(CC1CC1)C(=O)[C@H](S[C@@H]1O[C@H](CO)[C@H](O)[C@H](n2cc(-c3cc(F)c(F)c(F)c3)nn2)[C@H]1O)C1(O)CCC(F)(F)CC1 [Example 2.44.218R., (R)-N-(Cyclopropylmethyl)-2-(4,4-difluoro-1-hydroxycyclohexyl)-2-(((2S,3R,4S,5R,6R)-3,5-dihydroxy-6-(hydroxymethyl)-4-(4-(3,4,5-trifluorophenyl)-1H-1,2,3-triazol-1-yl)tetrahydro-2H-pyran-2-yl)thio)-N-methylacetamide]
IC50 [1]: 1900 nM
IC50 [2, 4]: 1150 nM

CN(CC1CC1)C(=O)[C@@H](S[C@@H]1O[C@H](CO)[C@H](O)[C@H](n2cc(-c3cc(F)c(F)c(F)c3)nn2)[C@H]1O)C1(O)CCC(F)(F)CC1 [Example 2.44.218S., (S)-N-(Cyclopropylmethyl)-2-(4,4-difluoro-1-hydroxycyclohexyl)-2-(((2S,3R,4S,5R,6R)-3,5-dihydroxy-6-(hydroxymethyl)-4-(4-(3,4,5-trifluorophenyl)-1H-1,2,3-triazol-1-yl)tetrahydro-2H-pyran-2-yl)thio)-N-methylacetamide]
IC50 [1]: 40 nM
IC50 [2, 4]: 50 nM

CN(C(=O)C(S[C@@H]1O[C@H](CO)[C@H](O)[C@H](n2cc(-c3cc(F)c(F)c(F)c3)nn2)[C@H]1O)C1(O)CCC(F)(F)CC1)C1CC1 (stereo partly drawn) [Example 2.44.221., N-Cyclopropyl-2-(4,4-difluoro-1-hydroxycyclohexyl)-2-(((2S,3R,4S,5R,6R)-3,5-dihydroxy-6-(hydroxymethyl)-4-(4-(3,4,5-trifluorophenyl)-1H-1,2,3-triazol-1-yl)tetrahydro-2H-pyran-2-yl)thio)-N-methylacetamide]
IC50 [1]: 60 nM
IC50 [2, 4]: 30 nM

CO[C@@H]1[C@@H](n2cc(-c3cc(F)c(F)c(F)c3)nn2)[C@@H](O)[C@@H](CO)O[C@H]1SC(C(=O)N(C)CC(C)(C)F)C1(O)CCC(F)(F)CC1 (stereo partly drawn) [Example 2.44.222.1., 2-(4,4-Difluoro-1-hydroxycyclohexyl)-N-(2-fluoro-2-methylpropyl)-2-(((2S,3R,4S,5R,6R)-5-hydroxy-6-(hydroxymethyl)-3-methoxy-4-(4-(3,4,5-trifluorophenyl)-1H-1,2,3-triazol-1-yl)tetrahydro-2H-pyran-2-yl)thio)-N-methylacetamide]
IC50 [1]: 220 nM
IC50 [2, 3]: 50 nM

CO[C@@H]1[C@@H](n2cc(-c3cc(F)c(F)c(F)c3)nn2)[C@@H](O)[C@@H](CO)O[C@H]1S[C@@H](C(=O)N(C)CC(C)(C)F)C1(O)CCC(F)(F)CC1 [Example 2.44.222R.I., (R)-2-(4,4-Difluoro-1-hydroxycyclohexyl)-N-(2-fluoro-2-methylpropyl)-2-(((2S,3R,4S,5R,6R)-5-hydroxy-6-(hydroxymethyl)-3-methoxy-4-(4-(3,4,5-trifluorophenyl)-1H-1,2,3-triazol-1-yl)tetrahydro-2H-pyran-2-yl)thio)-N-methylacetamide]
IC50 [1]: 8780 nM
IC50 [2, 3]: 7900 nM

CO[C@@H]1[C@@H](n2cc(-c3cc(F)c(F)c(F)c3)nn2)[C@@H](O)[C@@H](CO)O[C@H]1S[C@H](C(=O)N(C)CC(C)(C)F)C1(O)CCC(F)(F)CC1 [Example 2.44.222S.I., (S)-2-(4,4-Difluoro-1-hydroxycyclohexyl)-N-(2-fluoro-2-methylpropyl)-2-(((2S,3R,4S,5R,6R)-5-hydroxy-6-(hydroxymethyl)-3-methoxy-4-(4-(3,4,5-trifluorophenyl)-1H-1,2,3-triazol-1-yl)tetrahydro-2H-pyran-2-yl)thio)-N-methylacetamide]
IC50 [1]: 70 nM
IC50 [2, 3]: 10 nM

CN(CC1(F)CCCC1)C(=O)C(S[C@@H]1O[C@H](CO)[C@H](O)[C@H](n2cc(-c3cc(F)c(F)c(F)c3)nn2)[C@H]1O)C1(O)CCC(F)(F)CC1 (stereo partly drawn) [Example 2.44.223R., 2-(4,4-Difluoro-1-hydroxycyclohexyl)-2-(((2S,3R,4S,5R,6R)-3,5-dihydroxy-6-(hydroxymethyl)-4-(4-(3,4,5-trifluorophenyl)-1H-1,2,3-triazol-1-yl)tetrahydro-2H-pyran-2-yl)thio)-N-((1-fluorocyclopentyl)methyl)-N-methylacetamide]
IC50 [1]: 13400 nM
IC50 [2, 4]: 3570 nM

CN(CC1(F)CCCC1)C(=O)[C@@H](S[C@@H]1O[C@H](CO)[C@H](O)[C@H](n2cc(-c3cc(F)c(F)c(F)c3)nn2)[C@H]1O)C1(O)CCC(F)(F)CC1 [Example 2.44.223S., (S)-2-(4,4-Difluoro-1-hydroxycyclohexyl)-2-(((2S,3R,4S,5R,6R)-3,5-dihydroxy-6-(hydroxymethyl)-4-(4-(3,4,5-trifluorophenyl)-1H-1,2,3-triazol-1-yl)tetrahydro-2H-pyran-2-yl)thio)-N-((1-fluorocyclopentyl)methyl)-N-methylacetamide]
IC50 [1]: 80 nM
IC50 [2, 4]: 70 nM
